Data as given in PubChem BioAssay (NCI).
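Cultured in 96-well plates, cells were exposed to test compound for 48 hours across five concentrations. Definition used: TGI = concentration required for complete inhibition of growth.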

Experiments:
Assay in all cases: growth of human tumour cells (NCI), 48 h
[1] = tested on: IGROV1 ovarian
[2] = tested on: K-562 leukemia
[3] = tested on: OVCAR-5 ovarian
[4] = tested on: UACC-257 melanoma
[5] = tested on: HOP-92 NSCLC
[6] = tested on: UO-31 renal
[7] = tested on: SK-OV-3 ovarian
[8] = tested on: MDA-N
[9] = tested on: MALME-3M melanoma
[10] = tested on: SNB-75 CNS
[11] = tested on: SW-620 colon
[12] = tested on: T-47D breast
[13] = tested on: 786-0 renal
[14] = tested on: OVCAR-8 ovarian
[15] = tested on: HCT-116 colon
[16] = tested on: HL-60(TB) leukemia
[17] = tested on: ACHN renal
[18] = tested on: A498 renal
[19] = tested on: BT-549 breast
[20] = tested on: NCI-H226 lung
[21] = tested on: SK-MEL-2 melanoma
[22] = tested on: RXF 393 renal
[23] = tested on: MDA-MB-231 breast
[24] = tested on: NCI-H23 lung
[25] = tested on: EKVX NSCLC
[26] = tested on: TK-10 renal
[27] = tested on: UACC-62 melanoma
[28] = tested on: KM12 colon
[29] = tested on: M14 melanoma
[30] = tested on: RPMI-8226 leukemia
[31] = tested on: SF-539 CNS
[32] = tested on: A549 NSCLC
[33] = tested on: HOP-62 NSCLC
[34] = tested on: SN12C renal
[35] = tested on: CCRF-CEM leukemia
[36] = tested on: HCT-15 colon
[37] = tested on: DU-145 prostate
[38] = tested on: HT29 colon
[39] = tested on: COLO 205 colon
[40] = tested on: MDA-MB-435
[41] = tested on: NCI-H522 lung
[42] = tested on: NCI/ADR-RES ovarian
[43] = tested on: SK-MEL-5 melanoma
[44] = tested on: LOX IMVI melanoma
[45] = tested on: OVCAR-3 ovarian
[46] = tested on: SR leukemia
[47] = tested on: MOLT-4 leukemia
[48] = tested on: CAKI-1 renal
[49] = tested on: SNB-19 CNS
[50] = tested on: SF-268 CNS
[51] = tested on: SF-295 CNS
[52] = tested on: HS 578T breast
[53] = tested on: MCF7 breast
[54] = tested on: NCI-H460 lung
[55] = tested on: U251 CNS
[56] = tested on: OVCAR-4 ovarian
[57] = tested on: HCC-2998 colon
[58] = tested on: SK-MEL-28 melanoma

Structure (SMILES): CCc1ccc(Nc2cc(=O)[nH]c(SCc3ccccc3)n2)cc1
- TGI [1]: > 100 µM
- TGI [2]: > 100 µM
- TGI [3]: > 100 µM
- TGI [4]: > 100 µM
- TGI [5]: > 100 µM
- TGI [6]: > 100 µM
- TGI [7]: > 100 µM
- TGI [8]: > 100 µM
- TGI [9]: > 100 µM
- TGI [10]: > 100 µM
- TGI [11]: > 100 µM
- TGI [12]: > 100 µM
- TGI [13]: > 100 µM
- TGI [14]: > 100 µM
- TGI [15]: > 100 µM
- TGI [16]: > 100 µM
- TGI [17]: > 100 µM
- TGI [18]: > 100 µM
- TGI [19]: > 100 µM
- TGI [20]: > 100 µM
- TGI [21]: > 100 µM
- TGI [22]: > 100 µM
- TGI [23]: > 100 µM
- TGI [24]: > 100 µM
- TGI [25]: > 100 µM
- TGI [26]: > 100 µM
- TGI [27]: > 100 µM
- TGI [28]: > 100 µM
- TGI [29]: > 100 µM
- TGI [30]: > 100 µM
- TGI [31]: > 100 µM
- TGI [32]: > 100 µM
- TGI [33]: > 100 µM
- TGI [34]: > 100 µM
- TGI [35]: > 100 µM
- TGI [36]: > 100 µM
- TGI [37]: > 100 µM
- TGI [38]: > 100 µM
- TGI [39]: > 100 µM
- TGI [40]: > 100 µM
- TGI [41]: > 100 µM
- TGI [42]: > 100 µM
- TGI [43]: > 100 µM
- TGI [44]: > 100 µM
- TGI [45]: > 100 µM
- TGI [46]: > 100 µM
- TGI [47]: > 100 µM
- TGI [48]: > 100 µM
- TGI [49]: > 100 µM
- TGI [50]: > 100 µM
- TGI [51]: > 100 µM
- TGI [52]: > 100 µM
- TGI [53]: > 100 µM

Structure (SMILES): COc1ccc(-c2cc(=O)c3c(OC)c(OC)c(OC)c(OC)c3o2)cc1OC
- TGI [1]: > 100 µM
- TGI [2]: > 100 µM
- TGI [3]: > 100 µM
- TGI [4]: > 100 µM
- TGI [5]: 74.4 µM
- TGI [6]: > 100 µM
- TGI [7]: > 100 µM
- TGI [8]: > 100 µM
- TGI [9]: > 100 µM
- TGI [54]: > 100 µM
- TGI [10]: > 100 µM
- TGI [11]: > 100 µM
- TGI [55]: > 100 µM
- TGI [56]: > 100 µM
- TGI [12]: 70.6 µM
- TGI [13]: > 100 µM
- TGI [14]: > 100 µM
- TGI [15]: > 100 µM
- TGI [16]: 59 µM
- TGI [17]: > 100 µM
- TGI [18]: > 100 µM
- TGI [19]: > 100 µM
- TGI [20]: > 100 µM
- TGI [21]: > 100 µM
- TGI [22]: > 100 µM
- TGI [23]: > 100 µM
- TGI [24]: > 100 µM
- TGI [25]: > 100 µM
- TGI [26]: > 100 µM
- TGI [27]: 72.4 µM
- TGI [29]: > 100 µM
- TGI [30]: > 100 µM
- TGI [31]: > 100 µM
- TGI [32]: > 100 µM
- TGI [33]: > 100 µM
- TGI [34]: > 100 µM
- TGI [35]: > 100 µM
- TGI [36]: > 100 µM
- TGI [37]: > 100 µM
- TGI [38]: > 100 µM
- TGI [39]: > 100 µM
- TGI [40]: > 100 µM
- TGI [41]: > 100 µM
- TGI [42]: 97.1 µM
- TGI [43]: > 100 µM
- TGI [44]: > 100 µM
- TGI [45]: > 100 µM
- TGI [46]: > 100 µM
- TGI [47]: 70.3 µM
- TGI [48]: > 100 µM
- TGI [49]: > 100 µM
- TGI [50]: > 100 µM
- TGI [51]: > 100 µM
- TGI [52]: 95.3 µM
- TGI [53]: > 100 µM
- TGI [57]: > 100 µM
- TGI [58]: > 100 µM
